Data: ChEMBL document CHEMBL2203073, “Synthesis and biological evaluation of 4,4-dimethyl lithocholic acid derivatives as novel inhibitors of protein tyrosine phosphatase 1B” (Bioorg Med Chem Lett, 2012)
pIC50, pKi: −log10 of the molar value.

Legend:
[1] = target: T1, Tyrosine-protein phosphatase non-receptor type 1 (Homo sapiens, UniProt P18031); experiment: Inhibition of PTP1B by para-nitrophenyl phosphate release assay
T1 sequence (P18031 whole entry): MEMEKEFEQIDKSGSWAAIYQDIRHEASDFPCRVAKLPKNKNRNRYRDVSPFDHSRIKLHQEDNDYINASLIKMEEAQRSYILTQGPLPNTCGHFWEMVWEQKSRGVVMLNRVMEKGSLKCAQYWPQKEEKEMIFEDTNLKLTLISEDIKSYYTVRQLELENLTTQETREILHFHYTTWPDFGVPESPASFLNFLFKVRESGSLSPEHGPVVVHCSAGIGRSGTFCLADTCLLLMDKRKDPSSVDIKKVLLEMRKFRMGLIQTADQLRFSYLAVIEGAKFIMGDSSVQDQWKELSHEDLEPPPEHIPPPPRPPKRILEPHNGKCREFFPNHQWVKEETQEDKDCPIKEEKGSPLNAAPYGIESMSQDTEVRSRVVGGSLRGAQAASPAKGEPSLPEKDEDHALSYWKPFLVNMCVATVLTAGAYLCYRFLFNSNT

[2] = target: T2, Tyrosine-protein phosphatase non-receptor type 2 (Homo sapiens, UniProt P17706); experiment: Inhibition of TCPTP by para-nitrophenyl phosphate release assay
T2 sequence (P17706 whole entry): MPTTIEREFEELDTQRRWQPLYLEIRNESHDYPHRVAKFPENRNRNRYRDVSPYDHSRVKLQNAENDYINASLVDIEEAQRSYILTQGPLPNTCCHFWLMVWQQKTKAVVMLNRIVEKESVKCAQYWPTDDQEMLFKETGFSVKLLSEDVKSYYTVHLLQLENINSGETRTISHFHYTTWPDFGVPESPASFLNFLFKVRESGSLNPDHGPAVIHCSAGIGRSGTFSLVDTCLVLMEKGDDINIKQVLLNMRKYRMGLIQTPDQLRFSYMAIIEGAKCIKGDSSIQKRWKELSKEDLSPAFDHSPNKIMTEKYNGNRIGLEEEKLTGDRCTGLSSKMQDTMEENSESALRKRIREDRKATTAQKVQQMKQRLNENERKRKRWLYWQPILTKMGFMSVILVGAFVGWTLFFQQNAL

[3] = Selectivity index, ratio of IC50 for TCPTP to PTP1B
[4] = target: Tyrosine-protein phosphatase non-receptor type 6 (Homo sapiens) (UniProt P29350); experiment: Inhibition of SHP1 at 40 uM
Sequence of Tyrosine-protein phosphatase non-receptor type 6 (Homo sapiens) (P29350 whole entry): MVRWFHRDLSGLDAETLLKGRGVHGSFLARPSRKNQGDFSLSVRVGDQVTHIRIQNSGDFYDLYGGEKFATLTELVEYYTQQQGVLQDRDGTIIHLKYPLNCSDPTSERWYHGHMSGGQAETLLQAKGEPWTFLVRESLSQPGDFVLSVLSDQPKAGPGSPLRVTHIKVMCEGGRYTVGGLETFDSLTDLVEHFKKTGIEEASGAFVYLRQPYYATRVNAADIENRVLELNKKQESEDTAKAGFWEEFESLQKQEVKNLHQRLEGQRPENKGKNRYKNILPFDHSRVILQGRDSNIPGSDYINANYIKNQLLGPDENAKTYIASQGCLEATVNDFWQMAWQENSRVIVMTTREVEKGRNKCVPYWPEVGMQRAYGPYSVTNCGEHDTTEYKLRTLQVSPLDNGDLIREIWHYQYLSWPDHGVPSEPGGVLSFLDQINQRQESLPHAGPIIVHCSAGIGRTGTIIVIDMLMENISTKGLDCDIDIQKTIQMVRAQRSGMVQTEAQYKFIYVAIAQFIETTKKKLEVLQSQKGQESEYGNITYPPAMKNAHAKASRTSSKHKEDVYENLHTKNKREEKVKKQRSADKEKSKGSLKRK

[5] = target: Receptor-type tyrosine-protein phosphatase F (Homo sapiens) (UniProt P10586); experiment: Inhibition of LAR at 40 uM
Sequence of Receptor-type tyrosine-protein phosphatase F (Homo sapiens) (P10586 whole entry): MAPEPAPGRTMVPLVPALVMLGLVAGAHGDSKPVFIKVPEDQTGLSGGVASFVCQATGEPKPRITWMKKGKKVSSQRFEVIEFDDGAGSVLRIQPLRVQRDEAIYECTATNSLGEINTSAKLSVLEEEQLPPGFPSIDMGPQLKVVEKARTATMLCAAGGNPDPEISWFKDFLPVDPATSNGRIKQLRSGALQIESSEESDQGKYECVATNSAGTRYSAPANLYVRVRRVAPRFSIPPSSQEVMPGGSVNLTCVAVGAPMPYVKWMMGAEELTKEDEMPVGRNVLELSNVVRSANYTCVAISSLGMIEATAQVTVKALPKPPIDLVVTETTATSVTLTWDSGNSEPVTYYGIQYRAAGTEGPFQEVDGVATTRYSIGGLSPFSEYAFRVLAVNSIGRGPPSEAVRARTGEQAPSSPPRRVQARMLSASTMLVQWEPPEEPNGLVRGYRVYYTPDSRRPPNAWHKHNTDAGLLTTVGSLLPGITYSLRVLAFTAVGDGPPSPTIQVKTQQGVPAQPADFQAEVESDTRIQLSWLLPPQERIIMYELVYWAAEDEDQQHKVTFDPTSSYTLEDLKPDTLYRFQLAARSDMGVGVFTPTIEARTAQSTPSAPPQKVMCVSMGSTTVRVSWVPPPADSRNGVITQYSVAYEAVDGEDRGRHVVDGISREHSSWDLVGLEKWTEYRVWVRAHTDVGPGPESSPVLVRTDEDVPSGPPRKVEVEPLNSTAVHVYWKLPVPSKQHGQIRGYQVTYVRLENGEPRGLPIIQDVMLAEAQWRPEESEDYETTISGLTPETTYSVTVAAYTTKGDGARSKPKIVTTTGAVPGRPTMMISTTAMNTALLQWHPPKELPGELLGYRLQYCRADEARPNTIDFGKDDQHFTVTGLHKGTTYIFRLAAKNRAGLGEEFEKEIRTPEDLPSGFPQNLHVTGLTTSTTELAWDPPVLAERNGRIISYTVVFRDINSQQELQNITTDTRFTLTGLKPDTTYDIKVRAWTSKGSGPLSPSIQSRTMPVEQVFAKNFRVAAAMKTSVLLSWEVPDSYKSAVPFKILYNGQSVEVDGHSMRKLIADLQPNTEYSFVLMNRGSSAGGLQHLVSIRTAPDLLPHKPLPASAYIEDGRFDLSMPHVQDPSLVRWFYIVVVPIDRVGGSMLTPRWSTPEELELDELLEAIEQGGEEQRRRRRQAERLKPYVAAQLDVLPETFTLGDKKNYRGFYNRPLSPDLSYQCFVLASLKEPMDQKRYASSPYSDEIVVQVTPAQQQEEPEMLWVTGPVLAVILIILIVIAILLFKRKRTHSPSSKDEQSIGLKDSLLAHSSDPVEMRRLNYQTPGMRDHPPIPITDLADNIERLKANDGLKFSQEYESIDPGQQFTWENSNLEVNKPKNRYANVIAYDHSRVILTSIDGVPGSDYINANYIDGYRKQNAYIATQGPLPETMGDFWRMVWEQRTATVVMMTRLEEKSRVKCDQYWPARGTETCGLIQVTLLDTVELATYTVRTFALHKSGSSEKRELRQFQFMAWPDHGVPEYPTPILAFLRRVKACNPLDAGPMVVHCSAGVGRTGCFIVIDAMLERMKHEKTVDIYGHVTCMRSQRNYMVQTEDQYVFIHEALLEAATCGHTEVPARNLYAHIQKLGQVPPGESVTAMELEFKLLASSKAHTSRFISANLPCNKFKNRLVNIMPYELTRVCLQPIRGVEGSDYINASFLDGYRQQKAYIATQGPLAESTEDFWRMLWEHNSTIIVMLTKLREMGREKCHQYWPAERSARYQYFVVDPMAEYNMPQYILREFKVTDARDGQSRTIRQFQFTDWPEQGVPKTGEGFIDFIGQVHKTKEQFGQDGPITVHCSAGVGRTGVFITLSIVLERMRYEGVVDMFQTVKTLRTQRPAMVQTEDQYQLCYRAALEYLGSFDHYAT

[6] = target: T1, Tyrosine-protein phosphatase non-receptor type 1; experiment: Competitive inhibition of PTP1B by para-nitrophenyl phosphate release assay
[7] = target: T3, Tyrosine-protein phosphatase non-receptor type 11 (Homo sapiens) (UniProt Q06124); experiment: Inhibition of SHP2 at 40 uM
T3 sequence (whole entry): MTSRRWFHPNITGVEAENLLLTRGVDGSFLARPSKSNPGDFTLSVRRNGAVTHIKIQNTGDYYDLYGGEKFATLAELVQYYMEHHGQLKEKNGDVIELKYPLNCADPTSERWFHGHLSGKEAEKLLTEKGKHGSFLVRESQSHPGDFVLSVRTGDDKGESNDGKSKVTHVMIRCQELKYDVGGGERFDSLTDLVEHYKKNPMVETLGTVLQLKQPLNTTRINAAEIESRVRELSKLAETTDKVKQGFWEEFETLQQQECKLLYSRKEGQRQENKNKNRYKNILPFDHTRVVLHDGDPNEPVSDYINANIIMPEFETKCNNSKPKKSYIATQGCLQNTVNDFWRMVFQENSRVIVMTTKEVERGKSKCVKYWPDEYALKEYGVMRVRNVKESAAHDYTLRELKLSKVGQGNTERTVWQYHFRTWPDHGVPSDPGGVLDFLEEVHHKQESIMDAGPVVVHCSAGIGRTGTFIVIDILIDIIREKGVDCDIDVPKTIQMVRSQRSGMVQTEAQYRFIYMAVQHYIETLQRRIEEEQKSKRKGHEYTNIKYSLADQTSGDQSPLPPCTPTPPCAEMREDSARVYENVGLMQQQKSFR

Structure (SMILES)	pIC50 [1]	pIC50 [2]	Ratio IC50 [3]	inhibition [4] [%]	inhibition [5] [%]	pKi [6]	inhibition [7] [%]
C[C@H](CCC(=O)O)[C@H]1CC[C@H]2[C@@H]3CC=C4C(C)(C)C(=O)CC[C@]4(C)[C@H]3CC[C@]12C	4.88	< 4.30					
C[C@H](CCC(=O)O)[C@H]1CC[C@H]2[C@@H]3CC=C4C(C)(C)c5nc(N)sc5C[C@]4(C)[C@H]3CC[C@]12C	5.25	4.96	2				
C[C@H](CCC(=O)O)[C@H]1CC[C@H]2[C@@H]3CC=C4C(C)(C)c5[nH]nc(C(=O)O)c5C[C@]4(C)[C@H]3CC[C@]12C	5.03	5.05	0.9				
C[C@H](CCC(=O)O)[C@H]1CC[C@H]2[C@@H]3CC=C4C(C)(C)c5oncc5C[C@]4(C)[C@H]3CC[C@]12C	5.04	4.33	5.1				
C[C@H](CCC(=O)O)[C@H]1CC[C@H]2[C@@H]3CC=C4C(C)(C)c5nc(N)ncc5C[C@]4(C)[C@H]3CC[C@]12C	5.44	4.77	5				
CCOC(=O)CC[C@@H](C)[C@H]1CC[C@H]2[C@@H]3CC=C4C(C)(C)c5[nH]ncc5C[C@]4(C)[C@H]3CC[C@]12C	4.72	< 4.40	> 2.1				
Cc1ncc2c(n1)C(C)(C)C1=CC[C@H]3[C@@H]4CC[C@H]([C@H](C)CCC(=O)O)[C@@]4(C)CC[C@@H]3[C@@]1(C)C2	5.04	4.94	1.2				
COC(=O)CC[C@@H](C)[C@H]1CC[C@H]2[C@@H]3CC=C4C(C)(C)c5nccnc5C[C@]4(C)[C@H]3CC[C@]12C	4.55	< 4.40	> 1.4				
C[C@H](CCC(=O)O)[C@H]1CC[C@H]2[C@@H]3CC=C4C(C)(C)c5c(cnn5-c5ccccc5)C[C@]4(C)[C@H]3CC[C@]12C	5.79	4.64	14.1	0.97	26.9	6.08	9.36
COC(=O)CC[C@@H](C)[C@H]1CC[C@H]2[C@@H]3CC=C4C(C)(C)C(=O)CC[C@]4(C)[C@H]3CC[C@]12C	4.88	< 4.30	> 3.8				
C[C@H](CCC(=O)O)[C@H]1CC[C@H]2[C@@H]3CC[C@@H]4C[C@H](O)CC[C@]4(C)[C@H]3CC[C@]12C [LITHOCHOLIC ACID]	4.89	4.69	1.6				
C[C@H](CCC(=O)O)[C@H]1CC[C@H]2[C@@H]3CC=C4C(C)(C)c5nccnc5C[C@]4(C)[C@H]3CC[C@]12C	5.06	4.62	2.8				
O=C(O)C(=O)c1ccc(OCc2ccc(COc3ccc(C(=O)C(=O)O)cc3)cc2)cc1			1.6				
COC(=O)CC[C@@H](C)[C@H]1CC[C@H]2[C@@H]3CC=C4C(C)(C)c5nc(N)sc5C[C@]4(C)[C@H]3CC[C@]12C	5.04	< 4.40	> 4.4				
C[C@H](CCC(=O)O)[C@H]1CC[C@H]2[C@@H]3CC=C4C(C)(C)c5nnsc5C[C@]4(C)[C@H]3CC[C@]12C	4.40	4.44	0.9				
C[C@H](CCC(=O)O)[C@H]1CC[C@H]2[C@@H]3CC=C4C(C)(C)c5[nH]ncc5C[C@]4(C)[C@H]3CC[C@]12C	5.39	4.72	4.7				
C[C@H](CCC(=O)O)[C@H]1CC[C@H]2[C@@H]3CC=C4C(C)(C)c5ncncc5C[C@]4(C)[C@H]3CC[C@]12C	4.93	4.97	0.9				
CCOC(=O)CC[C@@H](C)[C@H]1CC[C@H]2[C@@H]3CC=C4C(C)(C)c5nc(N)ncc5C[C@]4(C)[C@H]3CC[C@]12C	< 4.40	< 4.40					
